Data from ChEMBL document CHEMBL2203277, “Synthesis and antibacterial activity of novel modified 5-O-desosamine ketolides” (2012).
Values after ≈ are worked out from the molar mass of the structure shown.

Key:
Assay type in all cases: functional
Staphylococcus aureus [1] = experiment: Antibacterial activity against methicillin-sensitive Staphylococcus aureus ATCC 29213 by broth microdilution method
Streptococcus pyogenes [2] = experiment: Antibacterial activity against erythromycin-sensitive Streptococcus pyogenes 09U070 by broth microdilution method
Staphylococcus aureus [3] = experiment: Antibacterial activity against methicillin-sensitive Staphylococcus aureus 09O077 by broth microdilution method
Staphylococcus aureus [4] = experiment: Antibacterial activity against methicillin-resistant Staphylococcus aureus 09N120 by broth microdilution method
Streptococcus pneumoniae [5] = experiment: Antibacterial activity against erythromycin-sensitive Streptococcus pneumoniae 09H071 by broth microdilution method
Streptococcus pneumoniae [6] = experiment: Antibacterial activity against erythromycin-resistant Streptococcus pneumoniae 09D016 by broth microdilution method
[7] = test system: Staphylococcus epidermidis; experiment: Antibacterial activity against methicillin-sensitive Staphylococcus epidermidis 09G291 by broth microdilution method
Streptococcus pyogenes [8] = experiment: Antibacterial activity against erythromycin-resistant Streptococcus pyogenes 09Q149 by broth microdilution method
Streptococcus pneumoniae [9] = experiment: Antibacterial activity against erythromycin-sensitive Streptococcus pneumoniae ATCC 49619 by broth microdilution method
[10] = test system: Staphylococcus epidermidis; experiment: Antibacterial activity against methicillin-resistant Staphylococcus epidermidis 09R476 by broth microdilution method
Staphylococcus aureus [11] = experiment: Antibacterial activity against methicillin-resistant Staphylococcus aureus 09L075 by broth microdilution method
[12] = test system: Staphylococcus epidermidis; experiment: Antibacterial activity against methicillin-sensitive Staphylococcus epidermidis 09A011 by broth microdilution method
[13] = test system: Staphylococcus epidermidis; experiment: Antibacterial activity against methicillin-resistant Staphylococcus epidermidis 09M124 by broth microdilution method
Staphylococcus aureus [14] = experiment: Antibacterial activity against methicillin-sensitive Staphylococcus aureus 09U035 by broth microdilution method
Streptococcus pneumoniae [15] = experiment: Antibacterial activity against erythromycin-sensitive Streptococcus pneumoniae 09H065 by broth microdilution method
Streptococcus pneumoniae [16] = experiment: Antibacterial activity against erythromycin-resistant Streptococcus pneumoniae 09E427 by broth microdilution method

CC[C@H]1OC(=O)[C@H](C)C(=O)[C@H](C)[C@@H](O[C@@H]2O[C@H](C)[C@@H](OCc3ccccc3)[C@H](N(C)C)[C@H]2O)[C@](C)(OC)C[C@@H](C)C(=O)[C@H](C)[C@@H]2OC(=O)O[C@]12C
MIC (Staphylococcus aureus [1]): 32 µg/mL (≈ 44.5 µM) | MIC (Streptococcus pyogenes [2]): > 32 µg/mL | MIC (Staphylococcus aureus [3]): > 32 µg/mL | MIC (Staphylococcus aureus [4]): > 32 µg/mL | MIC (Streptococcus pneumoniae [5]): 4 µg/mL (≈ 5.56 µM) | MIC (Streptococcus pneumoniae [6]): > 32 µg/mL | MIC [7]: > 32 µg/mL | MIC (Streptococcus pyogenes [8]): > 32 µg/mL | MIC (Streptococcus pneumoniae [9]): 4 µg/mL (≈ 5.56 µM) | MIC [10]: 32 µg/mL (≈ 44.5 µM) | MIC (Staphylococcus aureus [11]): > 32 µg/mL | MIC [12]: 16 µg/mL (≈ 22.2 µM) | MIC [13]: 32 µg/mL (≈ 44.5 µM) | MIC (Staphylococcus aureus [14]): > 32 µg/mL | MIC (Streptococcus pneumoniae [15]): 4 µg/mL (≈ 5.56 µM) | MIC (Streptococcus pneumoniae [16]): > 32 µg/mL

CC[C@H]1OC(=O)[C@H](C)C(=O)[C@H](C)[C@@H](O[C@@H]2O[C@H](C)[C@@H](O)[C@H](N(C)C)[C@H]2O)[C@](C)(OC)C[C@@H](C)C(=O)[C@H](C)[C@@H]2OC(=O)O[C@]12C
MIC (Staphylococcus aureus [1]): 0.125 µg/mL (≈ 0.198 µM) | MIC (Streptococcus pyogenes [2]): ≤ 0.031 µg/mL | MIC (Staphylococcus aureus [3]): > 32 µg/mL | MIC (Staphylococcus aureus [4]): > 32 µg/mL | MIC (Streptococcus pneumoniae [5]): ≤ 0.031 µg/mL | MIC (Streptococcus pneumoniae [6]): > 32 µg/mL | MIC [7]: > 32 µg/mL | MIC (Streptococcus pyogenes [8]): > 32 µg/mL | MIC (Streptococcus pneumoniae [9]): 0.062 µg/mL (≈ 0.0985 µM) | MIC [10]: 0.25 µg/mL (≈ 0.397 µM) | MIC (Staphylococcus aureus [11]): 0.125 µg/mL (≈ 0.198 µM) | MIC [12]: 0.125 µg/mL (≈ 0.198 µM) | MIC [13]: 0.25 µg/mL (≈ 0.397 µM) | MIC (Staphylococcus aureus [14]): > 32 µg/mL | MIC (Streptococcus pneumoniae [15]): 0.062 µg/mL (≈ 0.0985 µM) | MIC (Streptococcus pneumoniae [16]): > 32 µg/mL

C=CCO[C@H]1[C@H](N(C)C)[C@@H](O)[C@H](O[C@@H]2[C@@H](C)C(=O)[C@@H](C)C(=O)O[C@H](CC)[C@@]3(C)OC(=O)O[C@H]3[C@@H](C)C(=O)[C@H](C)C[C@@]2(C)OC)O[C@@H]1C
MIC (Staphylococcus aureus [1]): 4 µg/mL (≈ 5.97 µM) | MIC (Streptococcus pyogenes [2]): > 8 µg/mL | MIC (Staphylococcus aureus [3]): > 8 µg/mL | MIC (Staphylococcus aureus [4]): > 8 µg/mL | MIC (Streptococcus pneumoniae [5]): 1 µg/mL (≈ 1.49 µM) | MIC (Streptococcus pneumoniae [6]): > 8 µg/mL | MIC [7]: > 8 µg/mL | MIC (Streptococcus pyogenes [8]): > 8 µg/mL | MIC (Streptococcus pneumoniae [9]): 0.5 µg/mL (≈ 0.746 µM) | MIC [10]: 4 µg/mL (≈ 5.97 µM) | MIC (Staphylococcus aureus [11]): 8 µg/mL (≈ 11.9 µM) | MIC [12]: 2 µg/mL (≈ 2.99 µM) | MIC [13]: 4 µg/mL (≈ 5.97 µM) | MIC (Staphylococcus aureus [14]): > 8 µg/mL | MIC (Streptococcus pneumoniae [15]): 0.5 µg/mL (≈ 0.746 µM) | MIC (Streptococcus pneumoniae [16]): > 8 µg/mL

CC[C@H]1OC(=O)[C@H](C)[C@@H](O[C@H]2C[C@@](C)(OC)[C@@H](O)[C@H](C)O2)[C@H](C)[C@@H](O[C@@H]2O[C@H](C)C[C@H](N(C)C)[C@H]2O)[C@](C)(OC)C[C@@H](C)C(=O)[C@H](C)[C@@H](O)[C@]1(C)O [CLARITHROMYCIN]
MIC (Staphylococcus aureus [1]): 0.25 µg/mL (≈ 0.334 µM) | MIC (Streptococcus pyogenes [2]): 0.031 µg/mL (≈ 0.0414 µM) | MIC (Staphylococcus aureus [3]): > 32 µg/mL | MIC (Staphylococcus aureus [4]): > 32 µg/mL | MIC (Streptococcus pneumoniae [5]): 0.062 µg/mL (≈ 0.0829 µM) | MIC (Streptococcus pneumoniae [6]): > 32 µg/mL | MIC [7]: > 32 µg/mL | MIC (Streptococcus pyogenes [8]): > 32 µg/mL | MIC (Streptococcus pneumoniae [9]): 0.125 µg/mL (≈ 0.167 µM) | MIC [10]: 0.25 µg/mL (≈ 0.334 µM) | MIC (Staphylococcus aureus [11]): 2 µg/mL (≈ 2.67 µM) | MIC [12]: 0.125 µg/mL (≈ 0.167 µM) | MIC [13]: 32 µg/mL (≈ 42.8 µM) | MIC (Staphylococcus aureus [14]): > 32 µg/mL | MIC (Streptococcus pneumoniae [15]): 0.062 µg/mL (≈ 0.0829 µM) | MIC (Streptococcus pneumoniae [16]): > 32 µg/mL

CC[C@H]1OC(=O)[C@H](C)[C@@H](O[C@H]2C[C@@](C)(OC)[C@@H](O)[C@H](C)O2)[C@H](C)[C@@H](O[C@@H]2O[C@H](C)C[C@H](N(C)C)[C@H]2O)[C@](C)(O)C[C@@H](C)C(=O)[C@H](C)[C@@H](O)[C@]1(C)O [ERYTHROMYCIN]
MIC (Staphylococcus aureus [1]): 0.25 µg/mL (≈ 0.341 µM) | MIC (Streptococcus pyogenes [2]): 0.031 µg/mL (≈ 0.0422 µM) | MIC (Staphylococcus aureus [3]): > 256 µg/mL | MIC (Staphylococcus aureus [4]): > 256 µg/mL | MIC (Streptococcus pneumoniae [5]): 0.062 µg/mL (≈ 0.0845 µM) | MIC (Streptococcus pneumoniae [6]): > 256 µg/mL | MIC [7]: > 256 µg/mL | MIC (Streptococcus pyogenes [8]): > 256 µg/mL | MIC (Streptococcus pneumoniae [9]): 0.062 µg/mL (≈ 0.0845 µM) | MIC [10]: 0.125 µg/mL (≈ 0.17 µM) | MIC (Staphylococcus aureus [11]): 0.5 µg/mL (≈ 0.681 µM) | MIC [12]: 0.062 µg/mL (≈ 0.0845 µM) | MIC [13]: 128 µg/mL (≈ 174 µM) | MIC (Staphylococcus aureus [14]): > 256 µg/mL | MIC (Streptococcus pneumoniae [15]): 0.062 µg/mL (≈ 0.0845 µM) | MIC (Streptococcus pneumoniae [16]): > 256 µg/mL

CC[C@H]1OC(=O)[C@H](C)C(=O)[C@H](C)[C@@H](O[C@@H]2O[C@H](C)C[C@H](N(C)C)[C@H]2O)[C@](C)(OC)C[C@@H](C)C(=O)[C@H](C)[C@H]2N(CCCCn3cnc(-c4cccnc4)c3)C(=O)O[C@]12C [TELITHROMYCIN]
MIC (Staphylococcus aureus [1]): 0.125 µg/mL (≈ 0.154 µM) | MIC (Streptococcus pyogenes [2]): 0.016 µg/mL (≈ 0.0197 µM) | MIC (Staphylococcus aureus [3]): > 64 µg/mL | MIC (Staphylococcus aureus [4]): > 64 µg/mL | MIC (Streptococcus pneumoniae [5]): 0.031 µg/mL (≈ 0.0382 µM) | MIC (Streptococcus pneumoniae [6]): 0.125 µg/mL (≈ 0.154 µM) | MIC [7]: > 64 µg/mL | MIC (Streptococcus pyogenes [8]): 2 µg/mL (≈ 2.46 µM) | MIC (Streptococcus pneumoniae [9]): 0.031 µg/mL (≈ 0.0382 µM) | MIC [10]: 0.125 µg/mL (≈ 0.154 µM) | MIC (Staphylococcus aureus [11]): 0.125 µg/mL (≈ 0.154 µM) | MIC [12]: 0.125 µg/mL (≈ 0.154 µM) | MIC [13]: 0.25 µg/mL (≈ 0.308 µM) | MIC (Staphylococcus aureus [14]): > 64 µg/mL | MIC (Streptococcus pneumoniae [15]): 0.031 µg/mL (≈ 0.0382 µM) | MIC (Streptococcus pneumoniae [16]): 0.25 µg/mL (≈ 0.308 µM)
